# Molecular target: TRPA1 (hTRPA1, transient receptor potential ankyrin 1) (Homo sapiens, UniProt O75762)
# Experiment: Calcium […] fluorescence assay in hTRPA1-transfected vs untransfected HEK293T cells; agonist response blocked by A-967079; significant at […] and above
# Type: cell-based
# Chain of TRPA1 (hTRPA1, transient receptor potential ankyrin 1) (O75762 whole entry): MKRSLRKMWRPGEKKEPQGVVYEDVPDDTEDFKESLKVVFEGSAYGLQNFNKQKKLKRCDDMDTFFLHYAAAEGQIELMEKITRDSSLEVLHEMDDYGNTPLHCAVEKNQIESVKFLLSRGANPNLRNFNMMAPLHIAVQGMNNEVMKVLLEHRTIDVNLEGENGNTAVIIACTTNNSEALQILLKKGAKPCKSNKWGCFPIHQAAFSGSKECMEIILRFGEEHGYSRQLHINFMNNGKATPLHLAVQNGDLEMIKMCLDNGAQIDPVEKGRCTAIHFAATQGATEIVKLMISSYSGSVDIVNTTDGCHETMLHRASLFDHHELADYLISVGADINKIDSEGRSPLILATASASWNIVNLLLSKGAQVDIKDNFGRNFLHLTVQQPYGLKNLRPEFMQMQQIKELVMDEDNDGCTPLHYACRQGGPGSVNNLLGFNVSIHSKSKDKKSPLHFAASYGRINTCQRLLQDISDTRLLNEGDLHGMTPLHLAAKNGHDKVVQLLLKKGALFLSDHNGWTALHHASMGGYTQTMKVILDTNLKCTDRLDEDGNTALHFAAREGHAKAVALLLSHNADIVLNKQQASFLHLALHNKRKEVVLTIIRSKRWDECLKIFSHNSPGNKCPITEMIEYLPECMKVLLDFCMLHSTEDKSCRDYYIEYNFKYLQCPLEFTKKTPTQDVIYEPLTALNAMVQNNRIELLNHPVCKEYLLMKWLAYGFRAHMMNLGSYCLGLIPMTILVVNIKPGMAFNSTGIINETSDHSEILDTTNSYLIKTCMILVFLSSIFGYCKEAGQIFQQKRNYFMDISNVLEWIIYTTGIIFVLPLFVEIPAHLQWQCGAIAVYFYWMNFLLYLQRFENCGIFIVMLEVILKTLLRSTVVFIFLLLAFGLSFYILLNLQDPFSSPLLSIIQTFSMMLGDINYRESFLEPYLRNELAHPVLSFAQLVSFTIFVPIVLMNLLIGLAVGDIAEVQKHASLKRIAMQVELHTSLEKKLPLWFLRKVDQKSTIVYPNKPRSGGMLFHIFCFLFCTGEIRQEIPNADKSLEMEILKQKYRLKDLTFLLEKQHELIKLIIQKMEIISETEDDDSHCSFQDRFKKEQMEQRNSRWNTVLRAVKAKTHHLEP
smiles,measurement,value
Cc1nc(-c2ccc(OCC(C)C)c(C#N)c2)sc1C(=O)O [febuxostat],lowest concentration giving significant TRPA1 calcium response,~ 126 µM

# — paper PMC8268376, “Effects of Venlafaxine, Risperidone and Febuxostat on Cuprizone-Induced Demyelination, Behavioral Deficits and Oxidative Stress” (International Journal of Molecular Sciences, 2021)
